Results as given in US20170121344A1 (Siga Technologies, Inc., priority 2009, published 2017).
Like-named read-outs stand apart in the source and are kept apart here.

Experiments:
[1] = test system: Dengue-2 (Strain New Guinea C); test: Viral yield assay against Dengue-2 in Vero cells; assay type: cell-based, Dengue virus; settings: Dengue virus
Procedure, shortened: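 Infect Vero cells with virus (MOI 0.1), add compound or DMSO, incubate at 37° C, collect progeny at 48 hours post infection, then titrate on Vero cells to obtain EC50.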

DENV-4 = test: Viral yield assay against DENV-4 in Vero cells; assay type: cell-based; settings: Dengue virus
Procedure: (§1) Compounds that were active in the primary screen were tested for activity in viral yield assays. […] Vero cells in 12-well plates were infected with dengue-2 virus at a multiplicity of infection (MOI) of 0.1, treated with compound (or DMSO as a control), incubated at 37° C., harvested 48 hours post infection and titered on Vero cells as described above. The EC50 was calculated through ExcelFit. Activities against other serotypes of dengue virus were determined in a similar way.

DENV-1 = test: Viral yield assay against DENV-1 in Vero cells; assay type: cell-based; settings: Dengue virus
Procedure: as §1

DENV-3 = test: Viral yield assay against DENV-3 in Vero cells; assay type: cell-based; settings: Dengue virus, DENV3, viral yield assay
Procedure: as §1

[2] = DENV2, viral yield assay, Vero cells, MOI 0.1, 48 hours post infection, read-out: Activity (EC50 in μM) DENV-2
[3] = DENV2, Vero, 48 h, read-out: Activity (EC50 in μM) DENV-2
[4] = Vero cells, MOI 0.1, harvested 48 hours post infection, read-out: Activity (EC50 class) against Dengue-2 Virus in Vero cells

Question: What does the source list for `Nc1c(C(=O)N(CCC(=O)O)c2cccc(C(F)(F)F)c2)sc2nc(-c3cccs3)ccc12` [Compound 327, 3-[N-[3-amino-6-(2-thienyl)thieno[2,3-b]pyridine-2-carbonyl]-3-(trifluoromethyl)-anilino]propanoic acid]?
Answer: EC50 [1, 2]: < 5 µM; EC50 (DENV-4; DENV4, viral yield assay): < 5 µM; EC50 (DENV-1; DENV1, viral yield assay): < 5 µM; EC50 (DENV-3): < 5 µM

Question: How did the EC50 [1, 3] turn out when `Nc1c(C(=O)Nc2ccc3c(c2)OCO3)sc2nc(-c3ccc4c(c3)OCO4)ccc12` [Compound 591, 3-amino-N,6-bis(1,3-benzodioxol-5-yl) thieno[2,3-b]pyridine-2-carboxamide] was run?
Answer: < 5 µM

Question: And the EC50 (DENV-4; DENV4, viral yield assay)?
Answer: < 5 µM

Question: And the EC50 (DENV-1; DENV1, viral yield assay)?
Answer: < 5 µM

Question: What about the EC50 (DENV-3) of the same compound?
Answer: < 5 µM

Question: How did the EC50 [1, 2] turn out when `COc1cccc(-c2ccc3c(N)c(C(=O)Nc4ccc(C)c(Br)c4)sc3n2)c1` [Compound 559, 3-amino-N-(3-bromo-4-methyl-phenyl)-6-(3-methoxyphenyl)thieno[2,3-b] pyridine-2-carboxamide] was run?
Answer: < 5 µM

Question: What about the EC50 (DENV-4; DENV4, viral yield assay) of the same compound?
Answer: < 5 µM

Question: What about the EC50 (DENV-3) of the same compound?
Answer: < 5 µM

Question: With `O=C(O)CNc1c(C(=O)Nc2nnc(-c3ccccc3)s2)sc2nc(Cl)ccc12` [Compound 299, 2-[[6-chloro-2-[(5-phenyl-1,3,4-thiadiazol-2-yl)carbamoyl]thieno[2,3-b]pyridin-3-yl]amino]acetic acid] as the compound, how does the EC50 ([1]; DENV2, Vero cells, read-out: Activity (EC50 in μM) DENV-2) read?
Answer: 5 to 25 µM

Question: What about the EC50 (DENV-4; DENV4) of the same compound?
Answer: 5 to 25 µM

Question: What about the EC50 (DENV-1; DENV1) of the same compound?
Answer: 5 to 25 µM

Question: With `Nc1c(C(=O)Nc2ccc(F)cc2Cl)sc2nc(-c3ccc(F)cc3)ccc12` [Compound 618, 3-amino-N-(2-chloro-4-fluoro-phenyl)-6-(4-fluorophenyl)thieno[2,3-b]pyridine-2-carboxamide] as the compound, how does the EC50 [1, 2] read?
Answer: < 5 µM

Question: What about the EC50 (DENV-1; DENV1, viral yield assay) of the same compound?
Answer: < 5 µM

Question: `COc1ccc(-c2ccc3c(N)c(C(=O)Nc4ccc(OC(F)(F)F)cc4)sc3n2)cc1OC` [Compound 584, 3-amino-6-(3,4-dimethoxyphenyl)-N-[4-(trifluoromethoxy)phenyl]thieno[2,3-b] pyridine-2-carboxamide] was tested. Which EC50 [1, 2] did it give?
Answer: < 5 µM

Question: And the EC50 (DENV-4; DENV4, viral yield assay)?
Answer: < 5 µM

Question: How did the EC50 [1, 3] turn out when `Nc1c(C(=O)Nc2ccc(F)cc2)sc2nc(-c3ccc4c(c3)OCO4)ccc12` [Compound 603, 3-amino-6-(1,3-benzodioxol-5-yl)-N-(4-fluorophenyl)thieno[2,3-b]pyridine-2-carboxamide] was run?
Answer: < 5 µM

Question: What about the EC50 (DENV-4; DENV4, viral yield assay) of the same compound?
Answer: < 5 µM

Question: For `O=C1CN(c2cccc(C(F)(F)F)c2)C(=O)c2sc3nc(-c4cccs4)ccc3c2N1` [Compound 320], which EC50 [1, 2] is on record?
Answer: < 5 µM

Question: For `CCc1nc2sc(C(=O)Nc3cccc(C(F)(F)F)c3)c(N)c2cc1C` [Compound 93, 3-Amino-6-ethyl-5-methyl-thieno[2,3-b]pyridine-2-carboxylic acid (3-trifluoromethyl-phenyl)-amide], which EC50 [1, 4] is on record?
Answer: 5 to 25 µM

Question: With `N#Cc1cc2c(N)c(C(=O)N(c3ccccc3)c3ccccc3)sc2nc1N` [Compound 69, 3,6-Diamino-5-cyano-thieno[2,3-b]pyridine-2-carboxylic acid diphenylamide] as the compound, how does the EC50 [1, 4] read?
Answer: 5 to 25 µM

Question: How did the EC50 [1, 2] turn out when `Nc1c(C(=O)Nc2ccc(C(=O)C(F)(F)F)cc2)sc2nc(-c3ccc(Cl)cc3)ccc12` [Compound 351, 3-amino-6-(4-chlorophenyl)-N-[4-(2,2,2-tri-fluoroacetyl)phenyl]thieno [2,3-b]pyridine-2-carboxamide] was run?
Answer: < 5 µM

Question: How did the EC50 [1, 2] turn out when `COc1cccc(-c2ccc3c(N)c(C(=O)Nc4ccc(C)cc4Br)sc3n2)c1` [Compound 627, 3-amino-N-(2-bromo-4-methyl-phenyl)-6-(3-methoxyphenyl)thieno[2,3-b] pyridine-2-carboxamide] was run?
Answer: < 5 µM

Question: How did the EC50 [1, 2] turn out when `O=C(Nc1cccc(C(F)(F)F)c1)c1sc2ncccc2c1OCc1ccc(Cl)c(Cl)c1` [Compound 377, 3-[(3,4-dichlorophenyl)methoxy]-N-[3-(trifluoromethyl)phenyl]thieno[2,3-b] pyridine-2-carboxamide] was run?
Answer: < 5 µM

Question: How did the EC50 [1, 4] turn out when `CN1CCc2nc3sc(C(=O)Nc4cc(Br)ccc4Br)c(N)c3cc2C1` [Compound 63, 3-Amino-6-methyl-5,6,7,8-tetrahydro-thieno[2,3-b][1,6]naphthyridine-2-carboxylic acid (2,5-dibromo-phenyl)-amide] was run?
Answer: < 5 µM
